Measured values as given in PMC9533837 (Antiviral Research, 2003).
Converted amounts (≈) assume the structure as drawn. Like-named read-outs stand apart in the source and are kept apart here.

What was measured:
[1] = system: DNA polymerase of CMV versus human DNA polymerase α; conditions: cited from earlier work
[2] = system: VAR-BSH (1975 Bangladesh isolate of VAR major); assay: organism not typed; type: cell-based, variola major
[3] = system: VAR-BSH (1975 Bangladesh isolate of VAR major); assay: organism not typed; type: cell-based, variola major; remark: listed apart in the source
[4] = system: VAR-YAM (1946 Japan Yamada isolate of VAR major); assay: organism not typed; type: cell-based, variola major
[5] = system: VAR-YAM (1946 Japan Yamada isolate of VAR major); assay: organism not typed; type: cell-based, variola major; remark: listed apart in the source
[6] = system: VAR-GAR (1966 Brazil Garcia isolate of VAR minor); assay: organism not typed; type: cell-based, variola minor
[7] = system: VAR-GAR (1966 Brazil Garcia isolate of VAR minor); assay: organism not typed; type: cell-based, variola minor; remark: listed apart in the source
[8] = system: MPX Zaire (V79-1-005-Scab); assay: organism not typed; type: cell-based, monkeypox
[9] = system: MPX Zaire (V79-1-005-Scab); assay: organism not typed; type: cell-based, monkeypox; remark: listed apart in the source
CPX Brighton [10] = assay: organism not typed; type: cell-based, cowpox
CPX Brighton [11] = assay: organism not typed; type: cell-based, cowpox; remark: listed apart in the source
VAC Copenhagen [12] = assay: microbe, parasite or virus in culture; type: cell-based, vaccinia virus
VAC Copenhagen [13] = assay: microbe, parasite or virus in culture; type: cell-based, vaccinia virus; remark: listed apart in the source
[14] = system: orthopoxviruses (VAR-BSH, VAR-YAM, VAR-GAR, MPX, CPX, VAC); assay: organism not typed; type: cell-based
VAC = assay: microbe, parasite or virus in culture; type: cell-based; conditions: Orthopoxvirus vaccinia, read-out: IC50 against VAC
Vero cells = conditions: African green monkey
LLC-MK2 cells = conditions: rhesus monkey

Structure (SMILES): Nc1ccn(CC(CO)OCP(=O)(O)OP(=O)(O)OP(=O)(O)O)c(=O)n1 (centres unmarked) [Cidofovir diphosphate, cidofovir 5′-diphosphate]
- lower concentration inhibiting DNA polymerase of CMV than human DNA polymerase α [1]: 10 fold

Structure (SMILES): CC(C)(C)C(=O)OCOP(=O)(COCCn1cnc2c(N)ncnc21)OCOC(=O)C(C)(C)C [bis-POM-PMEA, 9-[2-[[bis[(pivaloyloxy)-methoxy]phosphinyl]methoxy]ethyl]adenine]
- Therapeutic index (TI) VAR-BSH Vero [2]: 1.2
- IC50 ([2]; Vero, read-out: IC50 VAR-BSH Vero): 84.2 µg/mL (≈ 168 µM)
- Therapeutic index (TI) VAR-BSH LLC-MK2 [3]: 1.0
- IC50 ([3]; LLC-MK2, read-out: IC50 VAR-BSH LLC-MK2): > 100 µg/mL
- Therapeutic index (TI) VAR-YAM Vero [4]: 1.0
- IC50 ([4]; Vero, read-out: IC50 VAR-YAM Vero): > 100 µg/mL
- Therapeutic index (TI) VAR-YAM LLC-MK2 [5]: 1.0
- IC50 ([5]; LLC-MK2, read-out: IC50 VAR-YAM LLC-MK2): > 100 µg/mL
- Therapeutic index (TI) VAR-GAR Vero [6]: 1.1
- IC50 ([6]; Vero, read-out: IC50 VAR-GAR Vero): 90 µg/mL (≈ 179 µM)
- Therapeutic index (TI) VAR-GAR LLC-MK2 [7]: 1.2
- IC50 ([7]; LLC-MK2, read-out: IC50 VAR-GAR LLC-MK2): 85 µg/mL (≈ 169 µM)
- Therapeutic index (TI) MPX Vero [8]: 1.0
- IC50 ([8]; Vero, read-out: IC50 MPX Vero): > 100 µg/mL
- Therapeutic index (TI) MPX LLC-MK2 [9]: 1.0
- IC50 ([9]; LLC-MK2, read-out: IC50 MPX LLC-MK2): > 100 µg/mL
- Therapeutic index (TI) CPX Vero (CPX Brighton [10]): 1.3
- IC50 (CPX Brighton [10]; Vero, read-out: IC50 CPX Vero): 75.5 µg/mL (≈ 151 µM)
- Therapeutic index (TI) CPX LLC-MK2 (CPX Brighton [11]): 1.2
- IC50 (CPX Brighton [11]; LLC-MK2, read-out: IC50 CPX LLC-MK2): 86 µg/mL (≈ 171 µM)
- Therapeutic index (TI) VAC Vero (VAC Copenhagen [12]): 2.3
- IC50 (VAC Copenhagen [12]; Orthopoxvirus vaccinia, Vero, read-out: IC50 VAC Vero): 44 µg/mL (≈ 87.7 µM)
- Therapeutic index (TI) VAC LLC-MK2 (VAC Copenhagen [13]): 1.5
- IC50 (VAC Copenhagen [13]; Orthopoxvirus vaccinia, LLC-MK2, read-out: IC50 VAC LLC-MK2): 66.2 µg/mL (≈ 132 µM)
- inhibitory activity against the orthopoxviruses tested (in words) [14]: Neither PMEA nor bis-POM-PMEA was effective
- IC50 (VAC): 55.1 µg/mL (≈ 110 µM)
- Cytotoxicity TC50 Vero (Vero cells): >100 µg/mL
- Cytotoxicity TC50 LLC-MK2 (LLC-MK2 cells): >100 µg/mL
